Results from patent publication US6544767B1, “Cathespin O2 protease” (Axys Pharmaceuticals, Inc., priority 1994, dated 2003).
Where two headings read alike, the source gives them in different places. Non-standard residues stand in square brackets, D forms with d. Residues, ends and D or L forms follow the SMILES beside them. *: point of attachment. Sta = CC(C)C[C@H](N)[C@@H](O)CC(=O)O; AMC = Cc1cc(=O)oc2cc(N*)ccc12; Isovaleryl = CC(C)CC(=O)*; Cbz = O=C(OCc1ccccc1)*; CHN2 = [N-]=[N+]=C*

Key:
[1] = biological target: T1, recombinant human cathepsin O2 (Homo sapiens, UniProt P43235); test: Inhibitor profile, fluorimetric enzyme assay with Z-FR-MCA; format: biochemical; settings: for inhibition at 0.05 µM: [inhibitor] 0.05 μM
T1 construct: the mature protein spans from position 115 to 329 (215 amino acids); made in house; host or cells: Sf9 insect cells (baculovirus, pVL1392)
T1 sequence (P43235 115-329): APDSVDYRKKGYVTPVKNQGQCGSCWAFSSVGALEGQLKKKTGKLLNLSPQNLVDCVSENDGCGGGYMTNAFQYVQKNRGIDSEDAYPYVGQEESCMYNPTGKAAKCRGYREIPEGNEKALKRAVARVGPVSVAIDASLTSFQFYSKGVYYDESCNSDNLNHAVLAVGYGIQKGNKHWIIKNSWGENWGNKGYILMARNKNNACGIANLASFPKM
Procedure: (§1) Human cathepsin O2 was assayed with a fluorogenic substrate Z-FR-MCA (MCA, methyl coumarylamide) in 100 mM sodium acetate buffer, containing 2.5 mM dithioerythreitol and 2.5 mM EDTA. Initial rates of hydrolysis of the MCA-substrate are monitored in 1-cm cuvettes at 25° C. at an excitation wavelength at 380 nm and an emission wavelength at 450 nm. The concentration of Z-FR-MCA is 5 μM under standard conditions.
The inhibition of cathepsin O2 was assayed at a constant substrate (5 μM Z-FR-MCA) and enzyme concentration (1 nM) in the presence of different inhibitor concentrations in the substrate assay buffer. Cathepsin O2 was preincubated with the inhibitors for 10 min and the reaction was started with substrate. The residual activity was monitored and percent inhibition was calculated from the uninhibited rate.
The efficacy of protease class specific inhibitors to inhibit cathepsin O2 was determined by adding the inhibitor to the purified enzyme in a fluorimetric enzyme assay (described above).

[2] = biological target: T1, recombinant human cathepsin O2; test: Hydrolysis of synthetic MCA substrates (kinetic parameters); format: biochemical
Procedure: as §1
The kinetic constants Vmax and Km were obtained by non-linear regression analysis using the program Enzfitter (Leatherbarrow, Enzfitter, Elsevier Biosoft, Cambridge, United Kingdom (1987).
The substrate specificity towards synthetic substrates was determined using the above described substrate assay.
For the calculation of the kinetic parameters kcat and Km the initial rates were obtained typically at 9-11 different substrate concentrations, and the results are fitted to equation (1). The enzyme concentration is determined by active site titration with E-64 (Kinder et al., Biochem. J. 201:367-372 (1982)). [formula]

[3] = from literature; cited from earlier work
pH activity profile = format: biochemical; settings: calculated from (pK1 + pK2)/2
Procedure: Initial rates of substrate hydrolysis were monitored as described above. The pH activity profile of human cathepsin O2 was obtained at 1 μM substrate (Z-FR-MCA) concentration ([S]<<Km where the initial rate vo is directly proportional to the kcat/Km value). The following buffers were used for the pH activity profile: 100 mM sodium citrate (pH 2.8-5.6) and 100 mM sodium phosphate (pH 5.8-8.0). All buffers contained 1 mM EDTA and 0.4 M NaCl to minimize the variation in ionic strength. A three protonation model (Khouri et al., Biochem. 30:8929-8936 (1991)) was used for least square regression analysis of the pH activity data. The data were fitted to the following equation.
(kcat/Km)obs=(kcat/Km)/([H^+]/K1+1+K2/[H^+])

[4] = system: denatured soluble calf skin collagen; test: Gelatinase activity, SDS-PAGE; format: biochemical
Procedure: FIGS. 9A and 9B depict SDS PAGE of type I collagen (soluble calf skin collagen) after digestion with recombinant human cathepsin O2 and L and bovine trypsin. FIG. 9A: Collagenase activity: Digestion of soluble calf skin collagen at 28° C. and at pH 4.0, 5.0, 5.5, 6.0, 6.5, 7.0 by human cathepsins O2, S and L (each 50 nM) for 12 hours. The reaction was stopped by addition of 10 μM E-64. Untreated soluble collagen was used as standard (S). FIG. 9B: Gelatinase activity: Digestion of denatured soluble calf skin collagen (10 min heated at 70° C.) at 28° C. and at pH 4.0, 5.0, 5.5, 6.0, 6.5, 7.0 by human cathepsin O2 (0.1 nM), cathepsin L (0.2 nM) and human cathepsin S (1 nM). Molecular mass standards are indicated in the left lane.
Soluble calf skin Type I collagen was diluted to 0.4 mg/ml into 100 mM-sodium acetate buffer, pH 4.5, 5.0, 5.5, in 100 mM-potassium phosphate buffer, pH 6.0, 6.5 and 100 mM-Tris/HCl, pH 7.0 containing 2 mM-dithiotreitol/2 mM-EDTA. Human cathepsins O2, S and L and bovine trypsin (Sigma) were incubated at concentrations of 100 nM enzyme concentration for 10 hours at 28° C. To measure the gelatinase activity of cathepsins O2 and S, Type I collagen was heated for 10 min at 70° C. prior to incubation with the proteases. In the presence of 1 nM proteases the reaction mix was incubated for 30 min at 28° C. […]

pH stability at 37° C. = format: physicochemical
Procedure: The residual activity was measured in time intervals using the above described fluorimetric substrate assay. The pH stability of cathepsins O2, S and L was studied at three different pH values. Recombinant human cathepsins O2, S and L were incubated at 37° C. in 100 mM sodium acetate buffer, pH 5.5, in 100 mM potassium phosphate buffer, pH 6.5 and in 100 mM Tris/HCl, pH 7.5 containing 5 mM dithiothreitol and 2.5 mM EDTA. Incubating for 0.5, 1, 2 and 4 hours, the activity remaining was determined using 5 μM Z-FR-MCA for cathepsin O2 (100 mM potassium phosphate buffer, pH 6.5) and cathepsin L (100 mM sodium acetate buffer, pH 5.5) and 5 μM Z-VVR-MCA for cathepsin S (100 mM potassium phosphate buffer, pH 6.5).

[^3H] elastin = Elastin degradation assay; format: biochemical
Procedure: Elastin (2 mg) was incubated in I ml buffer containing 2.5 mM dithiothreitol, 2.5 mM EDTA and 0.05% Triton X-100 for the cathepsin O2, S and L assays. Aliquots were withdrawn after 10, 20, 30, 50, 90, 120 and 180 min, centrifuged for 1 min at 14,000×g and counted in a 24-well plate containing scintillation fluid with Liquid Scintillation counter (1450 Microbeta Plus, Wallac/Pharmacia). Concentrations of human cathepsins O2, S and L and bovine elastase in the elastin degradation assay were 65 nM, 28 nM, 80 nM and 80 nM, respectively. To determine the pH effect on protease activity the digests were carried out at pH 4.5 and 5.5 (100 mM sodium acetate, 2.5 mM each dithiothreitol and EDTA, 0.05% Triton X-100), and at pH 7.0 (100 mM Tris/HCl, 2.5 mM each of dithiothreitol and EDTA, 0.05% Triton X-100). Pancreatic bovine elastase (Boehringer, Mannheim, Ind.) was assayed under the same conditions except that neither dithiothreitol nor EDTA was added to the incubation mixture.

**Q.** For `Cl.NCCc1ccc(S(=O)(=O)F)cc1` [Befablock], which “% inhibition” value ([1]; [inhibitor] 0.2 mM) is on record?
**A.** 0%

**Q.** With `O=c1oc(Cl)c(Cl)c2ccccc12` [DCI] as the molecule, how does the “% inhibition” value ([1]; [inhibitor] 0.1 mM) read?
**A.** 0%

**Q.** With `CC(C)C[C@H](NC(=O)[C@H]1O[C@@H]1C(=O)O)C(=O)NCCCCN=C(N)N` [E-64] as the molecule, how does the “% inhibition” value ([1]; [inhibitor] 0.1 μM) read?
**A.** 100%

**Q.** And the “inhibition of enzyme activity” value ([1]; concentrations above 0.1 μM)?
**A.** completely inhibit

**Q.** Which results are given for `O=C(O)CN(CCN(CC(=O)O)CC(=O)O)CC(=O)O` [EDTA]?
**A.** % inhibition ([1]; [inhibitor] 4 mM): 0%; effect on the activity of cathepsin O2 ([1]; concentration of 4 mM): No effect; inhibition of cathepsin O2 ([1]; higher concentrations (>5 mM)): partial non-specific inhibition

**Q.** With `O=S(=O)(F)Cc1ccccc1` [PMSF] as the molecule, how does the “% inhibition” value ([1]; [inhibitor] 1 mM) read?
**A.** 0%

**Q.** Which “% inhibition” value ([1]; [inhibitor] 0.1 μM) does the source give for `C[C@H](NC(=O)[C@H](Cc1ccccc1)NC(=O)OCc1ccccc1)C(=O)C=[N+]=[N-]` [Z-FA-CHN2] here?
**A.** 100%

**Q.** Which “% inhibition” value ([1]; [inhibitor] 0.1 μM) does the source give for `[N-]=[N+]=CC(=O)[C@H](Cc1ccccc1)NC(=O)[C@H](Cc1ccccc1)NC(=O)OCc1ccccc1` [Z-FF-CHN2] (Cbz-Phe-Phe-CHN2) here?
**A.** 90%

**Q.** For `Cc1cc(=O)oc2cc(NC(=O)C(CCCN=C(N)N)NC(=O)C(Cc3ccccc3)NC(=O)OCc3ccccc3)ccc12` (stereo not drawn) [Z-FR-MCA] (Cbz-Phe-Arg-{AMC}; configuration not given here), which Km [2] is on record?
**A.** 7.5 ± 3.4 µM

**Q.** And the kcat [2]?
**A.** 0.90 ± 0.20 s⁻¹

**Q.** For `Cc1cc(=O)oc2cc(NC(=O)[C@H](CCCN=C(N)N)NC(=O)[C@H](CC(C)C)NC(=O)OCc3ccccc3)ccc12` [Z-LR-MCA], which Km [2] is on record?
**A.** 3.8 ± 0.8 µM

**Q.** And the kcat [2]?
**A.** 0.98 ± 0.39 s⁻¹

**Q.** With `Cc1cc(=O)oc2cc(NC(=O)[C@H](CCCN=C(N)N)NC(=O)[C@H](CCCN=C(N)N)NC(=O)OCc3ccccc3)ccc12` [Z-RR-MCA] (Cbz-Arg-Arg-{AMC}) as the molecule, how does the Km [2] read?
**A.** 23 ± 4 µM

**Q.** What about the kcat [2] of the same molecule?
**A.** 0.0005 ± 0.0002 s⁻¹

**Q.** And the substrate quality [2]?
**A.** very poor substrate

**Q.** Which inhibition at 0.1 µM ([1]; [inhibitor] 0.1 μM) does the source give for `CCCC[C@@H](C=O)NC(=O)[C@H](CC(C)C)NC(=O)OCc1ccccc1` [calpeptin] here?
**A.** 100%

**Q.** For `CC(C)C[C@H](NC(=O)[C@@H](NC(=O)N[C@@H](Cc1ccccc1)C(=O)O)[C@@H]1CCN=C(N)N1)C(=O)N[C@H](C=O)Cc1ccccc1` [chymostatin], which inhibition at 0.05 µM [1] is on record?
**A.** 64%

**Q.** With `O=C(O)CI` [iodo acetate] as the molecule, how does the “% inhibition” value ([1]; [inhibitor] 50 μM) read?
**A.** 60%

**Q.** For `CC(=O)N[C@@H](CC(C)C)C(=O)N[C@@H](CC(C)C)C(=O)N[C@H](C=O)CCCNC(=N)N` [leupeptin], which inhibition at 0.05 µM [1] is on record?
**A.** 85%

**Q.** With `CC(C)CC(=O)N[C@H](C(=O)N[C@H](C(=O)N[C@@H](CC(C)C)[C@@H](O)CC(=O)N[C@@H](C)C(=O)N[C@@H](CC(C)C)[C@@H](O)CC(=O)O)C(C)C)C(C)C` [pepstatin] (Isovaleryl-VV[Sta]A[Sta]-OH) as the molecule, how does the inhibition at 0.1 µM ([1]; [inhibitor] 0.1 μM) read?
**A.** 0%

**Q.** Which results are given for Cbz-Val-Arg-{AMC}?
**A.** Km [2]: 13.1 ± 5.6 µM; kcat [2]: 1.06 ± 0.16 s⁻¹

**Q.** Which results are given for Cbz-Val-Val-Arg-{AMC}?
**A.** Km [2]: 18.5 ± 1.5 µM; kcat [2]: 0.01 ± 0.004 s⁻¹

**Q.** With Z-LLR-MCA as the molecule, how does the Km [2] read?
**A.** 0.4 ± 0.1 µM

**Q.** What about the kcat [2] of the same molecule?
**A.** 0.02 ± 0.008 s⁻¹

**Q.** What about the Km ([2]; text value) of the same molecule?
**A.** 0.4 µM

**Q.** Which results are given for “cathepsin L: recombinant human cathepsin L provided by Dr. Mort [reference compound]”?
**A.** pK1 of pH activity profile [3]: 4.22 ± 0.28; pK1′ of pH activity profile [3]: 3.33 ± 0.14; pK2 of pH activity profile [3]: 6.95 ± 0.09; pH optimum (pH activity profile): 5.6; pH range of gelatinase activity [4]: 4.5-5.5; Residual activity (%) (pH stability at 37° C.; pH 5.5, 37° C., 0.5 hr): 87%; Residual activity (%) (pH stability at 37° C.; pH 5.5, 37° C., 1 hr): 78%; Residual activity (%) (pH stability at 37° C.; pH 5.5, 37° C., 2 hr): 71%; Residual activity (%) (pH stability at 37° C.; pH 5.5, 37° C., 4 hr): 51%; Residual activity (%) (pH stability at 37° C.; pH 6.5, 37° C., 0.5 hr): 12%; Residual activity (%) (pH stability at 37° C.; pH 6.5, 37° C., 2 hr): 0%; Residual activity (%) (pH stability at 37° C.; pH 6.5, 37° C., 4 hr): 0%; Residual activity (%) (pH stability at 37° C.; pH 7.5, 37° C., 0.5 hr): 0%; Residual activity (%) (pH stability at 37° C.; pH 7.5, 37° C., 1 hr): 0%; Residual activity (%) (pH stability at 37° C.; pH 7.5, 37° C., 2 hr): 0%; Residual activity (%) (pH stability at 37° C.; pH 7.5, 37° C., 4 hr): 0%; elastinolytic activity ([^3H] elastin; pH 4.5): 18 mg/min/μmol enzyme; elastinolytic activity ([^3H] elastin; pH 5.5): 32 mg/min/μmol enzyme; elastinolytic activity ([^3H] elastin; pH 7.0): 0 mg/min/μmol enzyme
